Experimental data as given in publication PMC7749107, “Identification and functional characterization of the first molluscan neuromedin U receptor in the slug, Deroceras reticulatum” (Scientific Reports, 2020).
pEC50: −log10 of the molar value. “Also recorded” adds a separate entry of the source. Like-named read-outs stand apart in the source and are kept apart here. Where a SMILES comes first, the peptide text is derived from it.

What was measured:
[1] = target: T1, DretNmU-Rb (Deroceras reticulatum, UniProt A0A888YNJ5); test: Calcium mobilisation (FLIPR Calcium 6 fluorescence) receptor activation assay, Sf9 cells stably expressing DretNmU-Rb; type: cell-based; details: for Binding activity (receptor response, ∆fluorescence) at single concentration: 500 nM peptide, three to four replicates, result in words
T1 sequence (A0A888YNJ5 1-502): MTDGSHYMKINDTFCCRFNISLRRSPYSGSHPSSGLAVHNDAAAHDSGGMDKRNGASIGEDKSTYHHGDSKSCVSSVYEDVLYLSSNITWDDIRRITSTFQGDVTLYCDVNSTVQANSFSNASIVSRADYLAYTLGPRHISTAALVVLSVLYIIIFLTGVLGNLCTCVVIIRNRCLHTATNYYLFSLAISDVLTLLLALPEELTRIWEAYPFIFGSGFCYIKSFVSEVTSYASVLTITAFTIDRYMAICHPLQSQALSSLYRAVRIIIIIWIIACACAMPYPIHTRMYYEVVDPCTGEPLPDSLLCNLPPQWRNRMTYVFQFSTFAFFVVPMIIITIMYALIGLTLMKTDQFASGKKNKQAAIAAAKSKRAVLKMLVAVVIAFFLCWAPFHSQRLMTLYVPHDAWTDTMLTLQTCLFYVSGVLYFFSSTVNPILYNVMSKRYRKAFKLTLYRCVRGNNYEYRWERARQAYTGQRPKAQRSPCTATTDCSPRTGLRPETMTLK
Experimental: (§1) Sf9 cells were cultured in a 50 ml-Erlenmeyer flask while shaking at 145 rpm at 28 °C using Insectagro Sf9 Medium (Corning) supplemented with 5% heat-inactivated fetal bovine serum (HyClone, USA) and antibiotics (penicillin and streptomycin; Gibco). Three µg of either pIB/DretNmU-Ra or pIB/DretNmU-Rb plasmid was added to 100 μl of serum-free medium, and 15% CellFectin II (Invitrogen) in 100 μl serum-free medium was prepared, and both were placed at room temperature for 5 min. Samples were combined by pipetting and placed at room temperature for another 20 min. The plasmid-CellFectin II mixture was then added to a T-25 flask containing a layer of Sf9 cells covering about 70% of the surface, and incubated overnight. The next morning, the medium was replaced with fresh medium containing 50 μg/ml blasticidin. […] When culture was confluent, the recombinant cells were lifted and transferred to suspension cultures and grown until the exponential growth phase, and then stock cultures were frozen in liquid nitrogen. These frozen stock cell lines were thawed, cultivated for several passages in media containing 20 μg/ml blasticidin, and used for the ligand binding assays.
(§2) Two days before the binding assay, ~ 50,000 Sf9 cells expressing the DretNmU-Ra or -Rb from suspension cultures were dispensed into each well of a black 96-well plate (Corning C3603) and incubated at 28 °C overnight. At 48 h, cells were rinsed once with 100 μl of fresh medium without FBS. After removing the media, cells were incubated with 95 μl of 1 × FLIPR Calcium 6 reagent (Molecular Devices, USA) containing 2.5 mM probenecid at room temperature in the dark for 1 h. The Calcium 6 reagent-loaded cells were transferred to the Flexstation 3 multi-mode microplate reader (Molecular Devices) to measure fluorescence change (∆fluorescence) before and after loading 5 μl of peptide ligands (20×), detecting emission at 535 nm with excitation at 485 nm. Fluorescence measurements from each well on the column were taken every 5 s for 4 min. The peptide ligand was added by automatic pipettor once at 30 s from the beginning, and 5 μl of 5 μM ionomycin was added at 3 min to confirm calcium activity. Baseline fluorescence was determined by averaging 5 time points from each well prior to treatment with ligand and the resulting response was expressed as a percent increase in fluorescence relative to the baseline value.
(§3) For the initial screening and structure–activity tests, each cell line was exposed to a single concentration of 500 nM of each peptide or control. For the dosage-response assay, threefold serial dilutions of selected ligands with water were used, giving final ligand concentrations between 8 pM and 1.5 μM. The mean response from four wells receiving the same treatment in the same plate was regarded as one replicate, and at least three replicates from independent assays on different cell plates were analyzed. Data were transformed into a log scale and fit into the non-linear regression curve. EC50 values were obtained by statistical analysis using the sum of squares F-test function using GraphPad Prism version 8.0 (San Diego, CA, USA).

[2] = target: T2, DretNmU-Ra (Deroceras reticulatum, UniProt A0A888YNE3); test: Calcium mobilisation (FLIPR Calcium 6 fluorescence) receptor activation assay, Sf9 cells stably expressing DretNmU-Ra; type: cell-based; details: for Binding activity (receptor response, ∆fluorescence) at single concentration: 500 nM peptide, three to four replicates, result in words
T2 sequence (A0A888YNE3 1-505): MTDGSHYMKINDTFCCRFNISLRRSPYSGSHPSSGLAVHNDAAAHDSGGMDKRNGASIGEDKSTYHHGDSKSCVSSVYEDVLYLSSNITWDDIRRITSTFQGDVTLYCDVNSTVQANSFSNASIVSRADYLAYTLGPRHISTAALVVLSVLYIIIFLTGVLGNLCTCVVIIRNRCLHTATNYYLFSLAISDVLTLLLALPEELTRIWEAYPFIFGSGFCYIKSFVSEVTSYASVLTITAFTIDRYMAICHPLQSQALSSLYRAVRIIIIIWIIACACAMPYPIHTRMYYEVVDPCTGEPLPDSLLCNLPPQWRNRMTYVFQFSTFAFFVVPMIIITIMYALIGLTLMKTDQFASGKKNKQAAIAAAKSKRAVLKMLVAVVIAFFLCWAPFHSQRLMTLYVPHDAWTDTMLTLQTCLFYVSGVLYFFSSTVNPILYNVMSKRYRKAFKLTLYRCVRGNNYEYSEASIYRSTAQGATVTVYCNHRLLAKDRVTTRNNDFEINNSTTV
Experimental: as §1, §2, §3

[3] = tested on: Deroceras reticulatum; test: Injection bioassay of the peptides in the slug; type: in vivo; details: n = 4; for Atypical behaviors after injection: 10 nmol peptide in 5 μl water injected into the foot, observed for initial 30 min, compared with water control; for Mortality after 3 days: 10 nmol peptide in 5 μl water injected into the foot of adult slugs, 18 °C
Experimental: Two peptides, QPPLPRYa and QPPVPRYa, were dissolved in purified water to obtain a 2 mM concentration and individually injected into the adult slugs (270–520 mg in weight). A Hamilton syringe was used to inject a dose of 10 nmol peptide in 5 μl water or water only for control into the posterior part of the foot of the slug (n = 4). The foot was chosen as the injection site in order to avoid possible damage to internal organs, which are primarily located underneath the mantle. […] Since the treated slugs secreted a large amount of the defensive mucus, weight loss was assessed by weighing the slugs on a VWR B2-Series Analytical Balance immediately before the treatment and again 3 days later. Post treatment weights were obtained after slugs were placed under wet conditions (slugs placed in a ventilated 8 oz plastic container lined with damp tissue paper) or under dry conditions (same container type without damp tissue paper). Slugs were placed under these conditions approximately 30 min after injection. These plastic containers were maintained in a growth chamber (Thermo Scientific Precision Model 818) at 18 °C and 12 h photoperiod. Statistical analysis was performed by One-way ANOVA followed by Dunnett’s multiple comparisons test using GraphPad Prism version 8.0 (GraphPad Software, CA, USA).

[4] = Sf9 cells stably expressing DretNmU-Rb
[5] = Sf9 cells stably expressing DretNmU-Ra
[6] = Sf9 cells stably expressing DretNmU-Rb, calcium fluorescence, threefold serial dilutions 8 pM to 1.5 μM, four to five replicates from independent assays, each the mean of four wells, read-out: EC50, normalized concentration-response
[7] = Sf9 cells stably expressing DretNmU-Ra, calcium fluorescence, threefold serial dilutions 8 pM to 1.5 μM, four to five replicates from independent assays, each the mean of four wells, read-out: EC50, normalized concentration-response

Row | Compound | Binding activity (receptor response, ∆fluorescence) at single concentration [1, 4] | Binding activity (receptor response, ∆fluorescence) at single concentration [2, 5] | pEC50 [1, 6] | pEC50 [2, 7] | Atypical behaviors after injection [3] | Mortality after 3 days ([3]; dry conditions) [%] | Mortality after 3 days ([3]; wet conditions) [%] | pEC50 [1] | pEC50 [2]
1 | PLPRYa [N-terminally truncated pentapeptide of QPPLPRYa] | gradual decrease of the binding ability | gradual decrease of the binding ability | – | – | – | – | – | – | –
2 | QPPLARYa [modified QPPLPRYa, alanine replacement of P5] | almost completely disappeared | almost completely disappeared | – | – | – | – | – | – | –
3 | QPPLPAYa [modified QPPLPRYa, alanine replacement of R6] | almost completely disappeared | almost completely disappeared | – | – | – | – | – | – | –
4 | CC(C)C[C@H](NC(=O)[C@@H]1CCCN1C(=O)[C@@H]1CCCN1C(=O)[C@@H](N)CCC(N)=O)C(=O)N1CCC[C@H]1C(=O)N[C@@H](CCCNC(=N)N)C(=O)N[C@@H](Cc1ccccc1)C(N)=O [QPPLPRFa] (H-QPPLPRF-NH2; N-terminus assumed) | retained normal activity | retained normal activity | 6.89 | 7.26 | – | – | – | – | –
5 | CC(C)[C@H](NC(=O)[C@@H]1CCCN1C(=O)[C@@H]1CCCN1C(=O)[C@@H](N)CCC(N)=O)C(=O)N1CCC[C@H]1C(=O)N[C@@H](CCCNC(=N)N)C(=O)N[C@@H](Cc1ccc(O)cc1)C(N)=O [QPPVPRYa] (H-QPPVPRY-NH2) | evoked distinct binding | evoked distinct binding | – | – | triggered a series of distinct, atypical behaviors | 50 | 0 | 7.90 | 8.19
6 | CC[C@H](C)[C@H](NC(=O)[C@H](CCCNC(=N)N)NC(=O)[C@@H]1CCCN1C(=O)[C@H](CCCNC(=N)N)NC(=O)[C@@H]1CCCN1C(=O)[C@@H](NC(=O)[C@H](C)N)C(C)C)C(N)=O [AVPRPRIa] (H-AVPRPRI-NH2; N-terminus assumed) | evoked distinct binding | evoked distinct binding | 7.91 | 8.19 | – | – | – | – | –
7 | CC(C)C[C@H](NC(=O)[C@@H]1CCCN1C(=O)[C@@H]1CCCN1C(=O)[C@@H](N)CC(N)=O)C(=O)N1CCC[C@H]1C(=O)N[C@@H](CCCNC(=N)N)C(=O)N[C@@H](Cc1ccc(O)cc1)C(N)=O [NPPLPRYa] (H-NPPLPRY-NH2; N-terminus assumed) | – | – | 7.60 | 7.49 | – | – | – | – | –
8 | CC(C)C[C@H](NC(=O)[C@@H]1CCCN1C(=O)[C@@H]1CCCN1C(=O)[C@@H](N)CCC(N)=O)C(=O)N1CCC[C@H]1C(=O)N[C@@H](CCCNC(=N)N)C(=O)N[C@@H](Cc1ccc(O)cc1)C(N)=O [QPPLPRYa] (H-QPPLPRY-NH2; N-terminus assumed) | evoked distinct binding | evoked distinct binding | – | – | triggered a series of distinct, atypical behaviors | 100 | 50 | 8.39 | 8.85
9 | QPPLPRWa [modified QPPLPRYa, C-terminal Y replaced with W] | dramatically reduced in its binding activity; also recorded: activity was eliminated | dramatically reduced in its binding activity; also recorded: activity was eliminated | – | – | – | – | – | – | –
10 | QPPLPRAa [modified QPPLPRYa, alanine replacement of Y7] | almost completely disappeared | almost completely disappeared | – | – | – | – | – | – | –
11 | LPRYa [N-terminally truncated tetra-peptide of QPPLPRYa] | all activity was lost | all activity was lost | – | – | – | – | – | – | –
